Some results are limits rather than exact numbers.

The text below walks through data of patent publication US20260146044A1, “AROMATIC COMPOUND, PHARMACEUTICAL COMPOSITION CONTAINING SAME, AND USE THEREOF” (Increland, priority 2023, published 2026).

Series [1] relates to secretion levels of IL-6 in PBMC cells. As to the kind of experiment: Inhibition of R848-induced IL-6 secretion in PBMC (IL-6 ELISA). In kind it is cell-based. Conditions: human PBMC, 20 h compound pre-incubation, 24 h stimulation. As to the method: This experiment was carried out in RPMI 1640 medium containing 10% FBS/1% penicillin/streptomycin, with each of the compounds at an initial test concentration of 1 μM. The compound DMSO was dissolved to form a stock solution, which was gradiently diluted 4-fold with the culture medium to a 4× working solution concentration. The diluted solution was added to a 96-well plate with 50 μL per well. PBMC (batch No.: HPP20062307, Sichuan Hope Bio-tech Co., Ltd.) cells were counted, and diluted to a concentration of 2×10^6/mL. The diluted cells were added to the above compound-containing 96-well plate with 150 μL per well, fully mixed, and incubated in an incubator with 5% CO2 at 37° C. for 20 h. Then, R848 was further added until a final concentration of […], and the cells were further incubated in the incubator with 5% CO2 at 37° C. for additional 24 h. Then, after centrifugation at 2,000 rpm for 4 min, the supernatant was diluted 110×, and detected using an IL-6 ELISA kit. An OD450 value was read, and converted to an IL-6 concentration based on a standard curve, to calculate an IC50 value by fitting a dose-effect curve using GraphPad 5.0.
(An ELISA detects its analyte on a solid surface through an enzyme-linked reagent.)

For series [2] the test system is unchanged. The series is described as follows: Inhibition of LPS+IL-1β-induced IL-6 secretion in PBMC (IL-6 ELISA). The series is classed as cell-based. Particulars: human PBMC, 24 h compound pre-incubation, 20 h stimulation. Here is the method:
This experiment was carried out in RPMI 1640 medium containing 10% FBS/1% penicillin/streptomycin, with each of the compounds at an initial test concentration of 1 μM. The compound DMSO was dissolved to form a stock solution, which was gradiently diluted 5-fold with the culture medium to a 4× working solution concentration. The diluted solution was added to a 96-well plate with 50 μL per well. PBMC (batch No.: HPP20062307, Sichuan Hope Bio-tech Co., Ltd.) cells were counted, and diluted to a concentration of 2×10^6/mL. The diluted cells were added to the above compound-containing 96-well plate with 150 μL per well, fully mixed, and incubated in an incubator with 5% CO2 at 37° C. for 24 h. Then, LPS and […] were further added to final concentrations of 10 ng/mL and 20 ng/mL, respectively, and the cells were further incubated in the incubator with 5% CO2 at 37° C. for 20 h. Then, after centrifugation at 2,000 rpm for 4 min, the supernatant was diluted 110×, and detected using an IL-6 ELISA kit. An OD450 value was read, and converted to an IL-6 concentration based on a standard curve, to calculate an IC50 value by fitting a dose-effect curve using GraphPad 5.0.

The target of another series is T1, IRAK4 protein (Homo sapiens, UniProt Q9NWZ3).
T1 construct: Effects of Compounds on IRAK4 Protein Degradation in THP1 Cells; endogenous in cells; host or cells: THP-1 cells
T1 sequence (Q9NWZ3 1-460): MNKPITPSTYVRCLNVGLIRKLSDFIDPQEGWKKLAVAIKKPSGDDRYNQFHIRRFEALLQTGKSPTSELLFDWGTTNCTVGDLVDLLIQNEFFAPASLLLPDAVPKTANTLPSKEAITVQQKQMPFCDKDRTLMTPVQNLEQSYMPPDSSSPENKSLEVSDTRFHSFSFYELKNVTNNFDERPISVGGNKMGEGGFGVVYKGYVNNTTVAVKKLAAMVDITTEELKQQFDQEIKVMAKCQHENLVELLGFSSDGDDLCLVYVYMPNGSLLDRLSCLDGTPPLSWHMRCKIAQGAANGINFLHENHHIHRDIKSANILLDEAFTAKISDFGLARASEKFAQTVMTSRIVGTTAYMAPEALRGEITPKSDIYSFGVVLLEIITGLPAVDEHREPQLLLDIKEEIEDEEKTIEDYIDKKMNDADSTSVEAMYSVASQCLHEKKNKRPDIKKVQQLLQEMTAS
The series is described as follows: IRAK4 protein degradation in THP1 cells (Western blot). The series is classed as cell-based. Particulars: 24 h. Here is the method: THP-1 cells were inoculated into a 96-well cell culture plate, with 5×10^4 cells and 100 μL of a culture medium per well. The cell culture plate was cultured in an incubator with 5% CO2 at 37° C. overnight. 100 nl of a well-prepared compound stock solution and a compound-free DMSO stock solution were respectively added to cells per well. The cell culture plate was incubated in an incubator with 5% CO2 at 37° C. for 24 h. One protease inhibitor tablet and one phosphatase inhibitor tablet were added to 20 mL of a cell lysis buffer, and they were gently mixed until complete dissolution. DTT at a final concentration of 200 mM was added to a 4× sample preparation buffer to prepare a 4× sample preparation working solution. 20× electrophoretic buffer was diluted to 1× with ultrapure water. 20× transfer buffer was diluted to 1× with ultrapure water, and 20% methanol was added. […] IRAK4 protein primary antibody working solution: 20 μl of IRAK4 antibody added to 20 mL of a blocking solution; β-Actin primary antibody working solution: 2 μl of beta-actin (13E5) Rabbit mAb antibody added to 20 mL of a blocking solution. IRAK4 protein secondary antibody working solution: Donkey Anti-Goat IgG H&L (HRP) diluted 1/5,000 in a blocking solution; 3-Actin secondary antibody working solution: Anti-rabbit IgG, RP-linked antibody diluted 1/10,000 in a blocking solution. The cell culture plate was centrifuged at 3,000 rpm for 3 min, and most of the culture medium was carefully pipetted. The cell plate was inverted, and centrifuged at 300 rpm for 30 s. 45 μL of a lysis buffer was added to each well. The mixture was shaken at 300 rpm for 30 s, allowed to stand on ice for 30 min, and pipetted 30 times at 20 min. 6 μL of 4× sample preparation working solution was added to 18 μL of protein supernatant for sample preparation, and the mixture was heated at 70° C. for 10 min. Remaining protein samples were stored at −80° C. In the precast gel, 8 μl of sample was loaded into each well for electrophoresis at a constant voltage of 120 V for about 60 min, transferred using a PVDF membrane at a constant current of 300 mA for 1 h, then blocked with a blocking solution at room temperature for 1 h, and incubated in a primary antibody working solution at 4° C. overnight. The membrane was washed with 1×TBST buffer for 3×10 min. The secondary antibody working solution was incubated at room temperature for 1 h. The membrane was washed with 1×TBST buffer for 3×10 min, and a chromogenic solution was used for exposure and color development.

The nature of series [3]: Metabolic stability in human liver microsome. Particulars: liver microsomes.
Experimental: (§1) Blank incubation plates T60 and NCF60 were preheated for 10 min; liver microsome was diluted to 0.56 mg/mL in 100 mM phosphate buffer, 445 μL of the microsome working solution (0.56 mg/mL) was transferred to the preheated “incubation” plates T60 and NCF60, and then the incubation plates T60 and NCF60 were pre-incubated with continuous shaking at 37° C. for 10 min. 54 μL of the liver microsome was transferred to a blank plate, then 6 μL of a NAPDH cofactor was added to the blank plate, and then 180 μL of a quenching solution was added to the blank plate; 5 µL of a composite working solution (100 μM) was added to each of the microsome-containing incubation plates (T60 and NCF60), and the mixture was thoroughly mixed 3 times; 50 μL of a buffer was added to the NCF60 plate, and the mixture was thoroughly mixed 3 times. Timing was started; the plates were incubated with shaking at 37° C. for 60 min; and 180 μL of a quenching solution and 6 μL of the NAPDH cofactor were added to a quenching plate TO. The plates were ensured to be cooled to prevent evaporation. For the T60 plate, the mixture was thoroughly mixed 3 times, and 54 μL of the mixture was immediately transferred to the quenching plate at the time point of 0 min. Then, 44 μL of the NAPDH cofactor was added to the incubation plate (T60). Timing was started; and the plate was incubated with shaking at 37° C. for 60 min. At 5, 15, 30, 45, and 60 min, 180 μL of the quenching solution was added to the quenching plate, mixed once, and then 60 μL of sample was continuously transferred from the plate T60 to the quenching plate at each time point.
(§2) For NCF60, the mixture was mixed once, and at the time point of 60 min, 60 μL of sample was transferred from the NCF60 incubator to the quenching solution-containing quenching plate. All sampling plates were shaken for 10 min, then centrifuged at 4,000 rpm at 4° C. for 20 min. 80 µL of the supernatant was transferred to 240 μL of HPLC water, and mixed using a plate shaker for 10 min.
Series [4] is described as follows: Metabolic stability in mouse liver microsome. Particulars: liver microsomes. (Microsomes from liver hold many membrane-bound enzymes, among them those of drug oxidation.)
Experimental: as §1, §2
Series [5] is described as follows: Pharmacokinetic experiment on mice (iv and ig). Particulars: mouse, plasma; for bioavailability: ig 5.00 mg/kg vs iv 1.00 mg/kg, read-out: Oral bioavailability Fobs (%); for Cmax: read-out: Peak plasma concentration Cmax. In kind it is in vivo.
Series [6] is described as follows: Pharmacokinetic experiment on SD rats (iv and ig). The series is classed as in vivo. Conditions: Sprague-Dawley, rat, plasma; for Cmax: read-out: Peak plasma concentration Cmax; for bioavailability: ig 5.00 mg/kg vs iv 1.00 mg/kg, read-out: Oral bioavailability Fobs (%). As to the method:
Pharmacokinetic experiment on SD rats: in this experiment, two administration modes: oral intragastric administration and tail vein injection were selected. Each of the compounds of the present patented invention was administered at an oral dose of 5 mg/kg at an administration volume of 10 mL/kg. […] Appropriate amounts of Solutol and H2O were proportionally added sequentially, and fully mixed ultrasonically by vortexing, to prepare a clear drug solution at 0.5 mg/mL. ICL004-protodrug was administered by intravenous injection at a dose of 1 mg/kg at an administration volume of 10 mL/kg. Right before use, an appropriate amount of the drug was accurately weighed, to prepare a final volume of 20% PEG 400 and 80% Saline. Appropriate amounts of PEG 400 and Saline were proportionally added sequentially, and fully mixed ultrasonically by vortexing, to prepare a clear drug solution at 0.1 mg/mL.
6 SD rats, each with body weight of 180-220 g, were randomly grouped into 2 groups. After fasting but with free access to water overnight, each […] in the first group was administered by gavage. 200 μL of blood was sampled from its eye socket into an anticoagulant tube respectively at each time point of 15 min, 30 min, 1 h, 2 h, 4 h, 6 h, 8 h, and 24 h after administration. Within one h, each of the blood samples was centrifuged at 10,000 rpm at 4° C. for 20 min (the sample was stored on an ice box prior to the centrifugation), and the supernatant (i.e., the plasma) was stored in a refrigerator at −20° C. for LC-MS/MS analysis. 200 μL of blood was sampled from the eye socket of each […] in the second group into an anticoagulant tube respectively at each time point of 5 min, 15 min, 30 min, 1 h, 2 h, 4 h, 8 h, and 24 h after administration by intravenous injection. Within one h, each of the blood samples was centrifuged at 10,000 rpm at 4° C. for 20 min (the blood sample was stored on an ice box prior to the centrifugation), and the supernatant, i.e., the plasma, was stored in a refrigerator at −20° C. for LC-MS/MS analysis.

[7] abbreviates: po, BALB/c Mice, ig, 5.00 mg/kg.

Regarding `Cc1nn(C2CCC(=O)NC2=O)c2cccc(N3CC4CN(C[C@H]5CC[C@H](n6cc7cc(NC(=O)c8cnn9cccnc89)c(N8CCO[C@H](C)C8)cc7n6)CC5)CC4C3)c12` (stereo partly shown) [TM-55], the IC50 in series [1] was 5.09 nM; in series [2], 7.63 nM. Besides, on IRAK4 protein, half-maximal degradation (DC50) was put at 4.81 nM.
For the compound `Cn1c(=O)n(C2CCC(=O)NC2=O)c2cccc(C#CCOC3CCN(C[C@H]4CC[C@H](n5cc(NC(=O)c6cnn7ccc(N8C[C@H]9C[C@@H]8CO9)nc67)c(C(F)F)n5)CC4)CC3)c21` (stereo partly shown) [Positive compound, reference compound], the IC50 in series [1] came to 38.5 nM; in series [2], 38.4 nM. The half-life at 1 µM in series [3] came out at 39.4 min; in series [4], 29.4 min.
Turning to `Cc1nn(C2CCC(=O)NC2=O)c2cccc(N3CCC(CN4CCC(N5Cc6cc(NC(=O)c7cnn8cccnc78)c(N(C)C)cc6C5=O)CC4)CC3)c12` (stereo not shown) [TM-66], the IC50 in series [1] turned out to be 262 nM; in series [2], 19.4 nM. At IRAK4 protein, this compound gave a DC50 of 0.57 nM.
Compound `Cc1nn(C2CCC(=O)NC2=O)c2cccc(OC3CCN(C[C@H]4CC[C@H](n5cc6cc(NC(=O)c7cnn8cccnc78)c(N7CCOCC7)cc6n5)CC4)CC3)c12` (stereo partly shown) [TM-56] yielded a 50% inhibitory concentration (IC50) in series [2] of 5.49 nM. The bioavailability in series [5] (po, ICR Mice) is 91.9%; in series [6] (po), 10.7%. Also, the area under the curve (AUC) in series [5] (po, ICR Mice, ig, 5.00 mg/kg) worked out at 2510 ng·h/mL; in series [5] (ICR Mice, iv, 1.00 mg/kg), 524 ng·h/mL; in series [6] (iv, 1.00 mg/kg) it was 1900 ng·h/mL; in series [6] (po, ig, 5.00 mg/kg) it was 1060 ng·h/mL. Besides, the AUC(0-inf) amounted to 2820 ng·h/mL in series [5] (po, ICR Mice, ig, 5.00 mg/kg); 613 ng·h/mL in series [5] (ICR Mice, iv, 1.00 mg/kg); 1980 ng·h/mL in series [6] (iv, 1.00 mg/kg); 1120 ng·h/mL in series [6] (po, ig, 5.00 mg/kg). The Cmax in series [5] (po, ICR Mice, ig, 5.00 mg/kg) was 220 ng/mL; in series [5] (ICR Mice, iv, 1.00 mg/kg) it was 81 ng/mL; in series [6] (iv, 1.00 mg/kg), 477 ng/mL; in series [6] (po, ig, 5.00 mg/kg), 96 ng/mL. Also, the half-life at 1 µM was determined as 80.8 min in series [3] and 70.1 min in series [4].
Regarding `Cc1nn(C2CCC(=O)NC2=O)c2cccc(N3CCC4(CC3)CN(C[C@H]3CC[C@H](n5cc6cc(NC(=O)c7cnn8cccnc78)c(N(C)C)cc6n5)CC3)C4)c12` (stereo partly shown) [TM-101], the IC50 in series [2] came out at 1.17 nM. For the same compound, the DC50 at IRAK4 protein is less than 0.1 nM. Besides, the bioavailability was 20.1% in series [5] (po, BALB/c Mice) and 11.1% in series [6] (po). For the same compound, the AUC is 3370 ng·h/mL in series [5] (setting [7]); 3390 ng·h/mL in series [5] (BALB/c Mice, iv, 1.00 mg/kg); 625 ng·h/mL in series [6] (iv, 1.00 mg/kg); 374 ng·h/mL in series [6] (po, ig, 5.00 mg/kg). Moreover, the AUC(0-inf) in series [5] (setting [7]) is 3550 ng·h/mL; in series [5] (BALB/c Mice, iv, 1.00 mg/kg), 3520 ng·h/mL; in series [6] (iv, 1.00 mg/kg), 674 ng·h/mL; in series [6] (po, ig, 5.00 mg/kg), 435 ng·h/mL. Besides, the Cmax in series [5] (setting [7]) was 356 ng/mL; in series [5] (BALB/c Mice, iv, 1.00 mg/kg), 580 ng/mL; in series [6] (iv, 1.00 mg/kg) it was 151 ng/mL; in series [6] (po, ig, 5.00 mg/kg), 23 ng/mL.

For orientation: IC50 means the concentration needed to halve the response being measured. The term DC50 denotes the midpoint of the concentration-degradation curve. The low end stands for a more potent degrader, the high end for a less potent degrader. One may read the half-life as how long it takes for the measured level to halve. A word on the bioavailability: it is the share of a dose that reaches the circulation, judged against a reference dose that is usually intravenous. By AUC is commonly meant the area under the concentration-time curve, a measure of exposure. Read a high AUC as high exposure. One may read the AUC(0-inf) as the area under the concentration-time curve extrapolated to infinity. Higher therefore signals more exposure.
